What was measured:
Recombinant Src enzyme = biological target: T1, Recombinant Src enzyme (Homo sapiens, UniProt P12931); experiment: Src HTRF assay; assay type: biochemical
T1 construct: purchased Millipore 14-326; host or cells: Sf21 insect cells
In short: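 Sf21-expressed recombinant Src at 5 nM final with biotinylated N-terminally tagged Tyk2 peptide substrate at 0.5 μM final; a component freshly made in enzyme assay buffer pH7.4 was used at 10 μM final. Buffer, supplements, compound handling and procedure as in the FAK HTRF assay; dasatinib included.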

Phospho Src(Y416) = biological target: T2, Phospho Src(Y416) (Homo sapiens, UniProt P12931); experiment: Phospho Src(Y416) Sandwich ELISA; assay type: cell-based; conditions: Panc1; read-out: pSrc EC50 (μM) Panc1
T2 construct: endogenous in cells; host or cells: Panc1
Procedure: E. Phospho Src(Y416) Sandwich ELISA
Phospho Src(Y416) Sandwich ELISA kit was obtained from Cell Signaling Tech.
(i) Reagent Preparation • 1. All microwell strips were brought to rt before use. • 2. 1× Wash Buffer was prepared by diluting 20× Wash Buffer (included in each PathScan® Sandwich ELISA Kit) in MilliQ® water or equivalently purified water. • 3. 1× Cell Lysis Buffer from CST #9803: 20 mM Tris (pH 7.5), 150 mM NaCl, 1 mM ethylene diamine tetraacetate (EDTA), 1 mM ethylene glycol-bis(2-aminoethyl)-N,N,N′,N′-tetraacetic acid (EGTA), 1% Triton™ X-100, 2.5 mM sodium pyrophosphate, 1 mM b-glycerophosphate, 1 mM Na3VO4, 1 μg/mL leupeptin. This buffer was stored at 4° C. for short-term use (1-2 weeks).
(ii) Preparing Cell Lysates • 1. The media was aspirated. The cells were treated by adding fresh media containing inhibitor for 1 h. The compound of Example 214 was used as reference. • 2. The cells were harvested under non-denaturing conditions by removing media and rinsing cells once with ice-cold PBS. • 3. PBS was removed, 0.5 mL ice-cold 1× Cell Lysis Buffer plus 1 mM phenylmethylsulfonylfluoride (PMSF) was added to each plate (10 cm in diameter) and the plate incubated on ice for 5 min. • 4. The cells were scraped off of the plate, transferred to an appropriate tube, and kept on ice. • 5. The lysates were sonicated on ice. • 6. Microcentrifugation was performed for 10 min at 4° C. and the supernatant transferred to a new tube. The supernatant was the cell lysate and was stored at −80° C. in single-use aliquots.
(iii) Test Procedure • 1. After the microwell strips reached rt, the required number of microwells were broken off. The microwells were placed in the strip holder. Unused microwells were resealed and stored at 4° C. immediately. • 2. 100 μL of Sample Diluent (supplied in each PathScan® Sandwich ELISA Kit, blue color) was added to a micro centrifuge tube. 100 μL of cell lysate was transferred into the tube and vortexed for a few seconds. […] Individual data sheets for each kit provided information regarding an appropriate dilution factor for lysates and kit assay results. However, dilution factors were titrated when specific cell lysates are used. • 3. 100 μL of each diluted cell lysate were added to the appropriate well. It was then sealed with tape and pressed firmly onto top of microwells. The plate was incubated for 2 h at 37° C. Alternatively, the plate was incubated overnight at 4° C., which gave the best detection of target protein. • 4. The tape was gently removed and the wells washed: • a. The plate contents were discarded into a receptacle. • b. Each well was washed 4 times with 1× Wash Buffer, 200 μL. • c. For each wash, plates were struck on fresh towels hard enough to remove the residual solution in each well, but wells were not allowed to completely dry at any time. • d. The underside of all wells was cleaned with a lint-free tissue. • 5. 100 μL of Detection Antibody (green color) was added to each well, sealed with tape and the plate incubated for 1 h at 37° C. • 6. The wash procedure was repeated as in Step 4. • 7. 100 μL of HRP-linked secondary antibody (red color) was added to each well, sealed with tape and the plate incubated plate for 30 min at 37° C. • 8. The wash procedure was repeated as in Step 4. • 9. 100 μL of TMB Substrate was added to each well, sealed with tape and the plate incubated for 10 min at 37° C. or 30 min at 25° C. • 10. 100 μL of STOP Solution was added to each well and shaken gently for a few seconds. Initial color of positive reaction was blue, which changed to yellow upon addition of STOP Solution. • 11. The results were read. • a. Visual Determination—read within 30 min after adding STOP Solution. • b. Spectrophotometric Determination—the underside of wells were wiped with a lint-free tissue and absorbance read at 450 nm within 30 min after adding STOP Solution.

AURKB (Aurora B) enzyme = biological target: T3, AURKB (Aurora B) enzyme (Homo sapiens, UniProt Q96GD4); experiment: Aurora B HTRF assay; assay type: biochemical; conditions: read-out: AuroraB IC50
T3 construct: purchased Invitrogen PVR 130
In short: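 HTRF kinase assay with 5 nM Aurora B and 50 nM ULight-PLK (Ser137) peptide, with a reagent at 30 μM final; 1 h at rt. Reaction stopped with EDTA, and phospho-peptide detected with 2 nM Eu-anti-P-PLK(Ser137) antibody after 1 h at rt, read as HTRF.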

recombinant human FAK1 = biological target: T4, recombinant human FAK1 (Homo sapiens, UniProt Q05397); experiment: FAK1 HTRF assay; assay type: biochemical
T4 construct: fused on or other part: N-terminal 6xHis tag
In short: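 His-tagged human FAK1 (residues 692–end, Sf9-expressed), 10 nM final, with 0.5 μM biotinylated gastrin-precursor Tyr87 peptide and a 10 μM final reagent in pH 7.4 buffer, 45 min at rt. Detection used Eu anti-pTyr antibody plus SA-APC (665/620 nm). Compounds top concentration 10 μM; IC50 from % inhibition.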

[1] = biological target: T5, FAK phosphorylated at Y397 in HEK-FAK cell line overexpressing human FL FAK protein (Homo sapiens, UniProt Q05397); experiment: Cell based assay, Phospho-FAK ELISA; conditions: HEK stb; read-out: pFAK EC50 (μM) HEK stb
T5 construct: expressed in transfected cells
In short: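 Stable HEK293 line overexpressing full-length human FAK, kept under 0.8 mg/mL Zeocin. In lysates, FAK Y397 autophosphorylation was measured by sandwich ELISA: total-FAK capture antibody, biotinylated pY397-specific detection antibody, streptavidin-HRP with TMB substrate.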

T2 sequence (P12931 whole entry): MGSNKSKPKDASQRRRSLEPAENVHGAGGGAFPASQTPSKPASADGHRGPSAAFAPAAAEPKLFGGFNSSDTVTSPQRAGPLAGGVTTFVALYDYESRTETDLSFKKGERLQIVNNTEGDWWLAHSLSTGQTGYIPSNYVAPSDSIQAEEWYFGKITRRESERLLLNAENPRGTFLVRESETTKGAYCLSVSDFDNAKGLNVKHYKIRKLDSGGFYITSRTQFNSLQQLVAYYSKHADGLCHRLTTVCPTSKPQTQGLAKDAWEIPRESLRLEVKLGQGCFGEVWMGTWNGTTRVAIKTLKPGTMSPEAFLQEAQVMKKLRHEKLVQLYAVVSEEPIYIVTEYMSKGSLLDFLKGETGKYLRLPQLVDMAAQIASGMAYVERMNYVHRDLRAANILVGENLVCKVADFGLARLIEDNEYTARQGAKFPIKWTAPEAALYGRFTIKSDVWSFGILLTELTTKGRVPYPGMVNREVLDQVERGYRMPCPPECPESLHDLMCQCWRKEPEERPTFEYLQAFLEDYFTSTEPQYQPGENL
T4 sequence (Q05397 422-680 limits assumed): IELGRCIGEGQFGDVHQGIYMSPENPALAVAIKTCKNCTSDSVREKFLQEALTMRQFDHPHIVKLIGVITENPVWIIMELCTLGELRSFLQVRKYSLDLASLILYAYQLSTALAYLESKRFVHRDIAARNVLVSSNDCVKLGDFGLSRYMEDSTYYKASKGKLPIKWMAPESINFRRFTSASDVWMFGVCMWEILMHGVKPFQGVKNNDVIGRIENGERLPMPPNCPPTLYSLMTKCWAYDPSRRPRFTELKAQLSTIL
T3 sequence (Q96GD4 whole entry): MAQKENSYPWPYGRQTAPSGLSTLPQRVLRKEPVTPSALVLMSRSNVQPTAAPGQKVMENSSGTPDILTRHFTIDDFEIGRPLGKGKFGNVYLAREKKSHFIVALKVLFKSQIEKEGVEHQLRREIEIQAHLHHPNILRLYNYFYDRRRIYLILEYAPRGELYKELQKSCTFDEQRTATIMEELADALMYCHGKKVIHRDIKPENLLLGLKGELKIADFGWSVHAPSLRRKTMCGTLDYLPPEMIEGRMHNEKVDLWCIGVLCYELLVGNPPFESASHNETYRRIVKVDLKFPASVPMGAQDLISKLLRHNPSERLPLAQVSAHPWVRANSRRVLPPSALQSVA
T5 sequence (Q05397 whole entry): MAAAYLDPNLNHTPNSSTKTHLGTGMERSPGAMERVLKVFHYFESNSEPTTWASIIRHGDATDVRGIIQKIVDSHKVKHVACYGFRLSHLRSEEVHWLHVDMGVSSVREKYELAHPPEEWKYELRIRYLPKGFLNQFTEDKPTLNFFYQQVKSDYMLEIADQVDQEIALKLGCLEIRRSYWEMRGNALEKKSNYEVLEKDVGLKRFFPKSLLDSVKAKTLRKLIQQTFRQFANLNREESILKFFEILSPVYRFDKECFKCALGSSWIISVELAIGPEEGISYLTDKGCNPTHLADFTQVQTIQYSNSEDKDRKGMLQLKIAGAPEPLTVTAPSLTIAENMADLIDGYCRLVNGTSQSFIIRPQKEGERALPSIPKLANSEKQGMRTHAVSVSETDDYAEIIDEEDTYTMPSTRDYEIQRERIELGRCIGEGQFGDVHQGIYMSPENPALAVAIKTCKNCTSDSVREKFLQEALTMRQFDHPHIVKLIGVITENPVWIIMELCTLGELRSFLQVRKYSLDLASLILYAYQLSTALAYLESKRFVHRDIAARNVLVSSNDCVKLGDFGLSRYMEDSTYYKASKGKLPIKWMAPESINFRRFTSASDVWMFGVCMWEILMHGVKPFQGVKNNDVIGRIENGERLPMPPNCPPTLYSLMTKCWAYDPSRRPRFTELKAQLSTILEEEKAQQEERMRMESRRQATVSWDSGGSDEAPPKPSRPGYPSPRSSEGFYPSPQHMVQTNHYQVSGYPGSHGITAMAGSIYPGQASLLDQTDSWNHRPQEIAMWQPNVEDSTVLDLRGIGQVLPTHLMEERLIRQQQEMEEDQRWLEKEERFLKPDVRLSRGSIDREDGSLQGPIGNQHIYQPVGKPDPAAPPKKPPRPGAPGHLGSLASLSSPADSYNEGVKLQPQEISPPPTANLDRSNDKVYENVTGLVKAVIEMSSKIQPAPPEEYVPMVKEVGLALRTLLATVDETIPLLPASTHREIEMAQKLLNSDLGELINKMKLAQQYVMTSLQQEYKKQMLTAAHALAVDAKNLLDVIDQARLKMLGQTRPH
T1 sequence (P12931 whole entry): as the sequence (P12931 whole entry) above

Row | SMILES | IC50 (Recombinant Src enzyme) [nM] | EC50 (Phospho Src(Y416)) [µM] | IC50 (AURKB (Aurora B) enzyme) [nM] | IC50 (recombinant human FAK1) [nM] | EC50 [1] [µM]
1 | O=C1CCc2cc(Nc3cc4c(cn3)cnn4Cc3ccccc3OC(F)F)ccc2N1 [Example 65] | < 20 | > 1 | > 1000 |  | 
2 | CN(C)S(=O)(=O)c1ccccc1Cn1ccc2cnc(Nc3ccc4c(c3)CCC(=O)N4)nc21 [Example 137] |  | > 1 | < 20 | < 20 | 
3 | O=C1CCc2cc(Nc3ncc4ccn(S(=O)(=O)c5ccccc5OC(F)F)c4n3)ccc2N1 [Example 151] |  | > 1 |  | < 20 | 
4 | CN(c1ncccc1Cn1ccc2cnc(Nc3cccc4ncccc34)nc21)S(C)(=O)=O [Example 160] | > 1000 | > 1 |  |  | 
5 | O=C1CCc2cc(Nc3ncc4ccn(S(=O)(=O)c5ccccc5Cl)c4n3)ccc2N1 [Example 199] |  | > 1 | < 20 | < 20 | 
6 | N#Cc1ccccc1S(=O)(=O)n1ccc2cnc(Nc3ccc(C4CCN(CC(N)=O)CC4)cc3)nc21 [Example 251] |  | > 1 | < 20 |  | 
7 | O=S(=O)(c1ccccc1)n1ncc2cnc(Nc3ccc(N4CCNCC4)cc3)nc21 [Example 255] |  | < 0.02 |  |  | 
8 | NC(=O)CN1CCC(c2ccc(Nc3ncc4ccn(S(=O)(=O)c5cccc6cccnc56)c4n3)cc2)CC1 [Example 256] |  | > 1 | < 20 | < 20 | 
9 | Cn1cc(Nc2ncc3ccn(S(=O)(=O)c4ccccc4C#N)c3n2)cn1 [Example 317] |  | > 1 |  |  | > 1
10 | O=C(Nc1ccc(Nc2ncc3ccn(S(=O)(=O)c4cccc5cccnc45)c3n2)cc1)C1CC1 [Example 331] |  | > 1 | < 20 | < 20 | 
11 | Cc1cc(Nc2cc3c(ccn3S(=O)(=O)c3cccc4cccnc34)cn2)ccc1N1CCNCC1 [Example 334] |  | > 1 | < 20 | < 20 | 
12 | COc1ccccc1S(=O)(=O)n1ccc2cnc(Nc3ccc(N4CCN(C(=O)C5CC5)CC4)cc3)nc21 [Example 350] |  | > 1 |  | < 20 | 
13 | Cc1cc(Nc2ncc3cnn(S(=O)(=O)c4cccc5cccnc45)c3n2)ccc1N1CCC(O)CC1 [Example 406] |  | > 1 |  | < 20 | 
14 | CN(c1ncccc1Cn1ccc2cnc(Nc3ccc(N4CCN5C(=O)CCC5C4)cc3)nc21)S(C)(=O)=O (stereo not shown) [Example 408] |  | > 1 | < 20 |  | 
15 | O=S(=O)(c1cccc2cccnc12)n1ncc2cnc(Nc3ccc(N4CCC(O)CC4)cc3)nc21 [Example 411] |  | > 1 |  | < 20 | 
16 | COC1CCN(c2ccc(Nc3ncc4ccn(S(=O)(=O)c5cccc6cccnc56)c4n3)cc2)CC1 [Example 412] |  | > 1 | < 20 | < 20 | 
17 | COc1cc(Nc2ncc3ccn(S(=O)(=O)c4cccc5cccnc45)c3n2)ccc1N1CCOCC1 [Example 432] |  | > 1 |  | < 20 | 
18 | CN(c1ccccc1Cn1ccc2cnc(Nc3ccc(N4CCC(O)CC4)cc3)nc21)S(C)(=O)=O [Example 434] |  | > 1 | < 20 | < 20 | 

Row | SMILES | IC50 (Recombinant Src enzyme) [nM] | EC50 (Phospho Src(Y416)) [µM] | IC50 (AURKB (Aurora B) enzyme) [nM] | IC50 (recombinant human FAK1) [nM] | EC50 [1] [µM]
19 | CC(=O)N1CCN(c2ccc(Nc3ncc4ccn(S(=O)(=O)c5cccc6cccnc56)c4n3)cc2)C[C@@H]1C [Example 449] |  | > 1 |  | < 20 | 
20 | CN(c1ccccc1Cn1ccc2cnc(Nc3ccc(NC(=O)C(C)(C)O)cc3)nc21)S(C)(=O)=O [Example 452] |  | > 1 |  |  | > 1
21 | CC(=O)OC1CCN(c2ccc(Nc3ncc4c(n3)N(S(=O)(=O)c3cccc5cccnc35)CC4(C)C)cc2)CC1 [Example 453] |  | > 1 |  |  | 
22 | CC(=O)OC1CCN(c2ccc(Nc3ncc4ccn(S(=O)(=O)c5cccc6cccnc56)c4n3)cc2)CC1 [Example 454] |  | > 1 |  | < 20 | 
23 | CN(c1ccccc1Cn1ccc2cnc(Nc3ccc4[nH]c(=O)oc4c3)nc21)S(C)(=O)=O [Example 457] |  | > 1 |  |  | 
24 | CC(=O)N1CCN(c2ccc(Nc3ncc4ccn(Cc5ccccc5N(C)S(C)(=O)=O)c4n3)cc2)C[C@H]1C [Example 458] |  | > 1 |  | < 20 | 
25 | CC(=O)N1CCN(c2ccc(Nc3ncc4ccn(Cc5ccccc5N(C)S(C)(=O)=O)c4n3)cc2)CC1 [Example 465] |  | > 1 | < 20 | < 20 | 
26 | C[C@H]1CN(c2ccc(Nc3ncc4c(n3)N(S(=O)(=O)c3cccc5cccnc35)CC4(C)C)cc2)CCN1 [Example 473] |  | > 1 |  | < 20 | 
27 | C[C@@H]1CN(c2ccc(Nc3ncc4ccn(Cc5ccccc5N(C)S(C)(=O)=O)c4n3)cc2)CCN1C [Example 486] |  | > 1 | < 20 | < 20 | 
28 | CN(c1ccccc1Cn1ccc2cnc(Nc3ccc4c(c3)OCC(=O)N4)nc21)S(C)(=O)=O [Example 539] |  | > 1 |  | < 20 | 
29 | CN(c1ncccc1Cn1ccc2cnc(Nc3ccc(N4CCC(CO)CC4)cc3)nc21)S(C)(=O)=O [Example 559] |  | > 1 |  |  | > 1
30 | CN(C)C1CN(c2ccc(Nc3ncc4ccn(Cc5cccnc5N(C)S(C)(=O)=O)c4n3)cc2F)C1 [Example 605] |  | > 1 |  |  | > 1
31 | CN(c1ncccc1Cn1ccc2cnc(Nc3ccc(N4CCN(C5CC5)CC4)cc3)nc21)S(C)(=O)=O [Example 659] |  | > 1 |  |  | > 1
32 | CN(c1ncccc1Cn1ccc2cnc(Nc3ccc(-c4cc[nH]c(=O)c4)cc3)nc21)S(C)(=O)=O [Example 669] |  | > 1 |  |  | > 1
33 | CN(c1ccccc1Cn1ccc2cnc(Nc3ccc(C4CNC(=O)CO4)cc3)nc21)S(C)(=O)=O (stereo not shown) [Example 676] |  | > 1 | < 20 |  | 
34 | Cc1cn(S(=O)(=O)c2cccc3cccnc23)c2nc(Nc3ccc(N4CCC(N(C)C)CC4)cc3)ncc12 [Example 712] |  | > 1 | < 20 | < 20 | 
35 | CN(c1ccccc1Cn1ccc2cnc(Nc3ccc(N4CCCC(O)C4)cc3)nc21)S(C)(=O)=O (stereo not shown) [Example 750] |  | > 1 |  | < 20 | 
36 | CN(c1ncccc1Cn1ccc2cnc(Nc3ccc(N4CCCC(O)C4)cc3)nc21)S(C)(=O)=O (stereo not shown) [Example 753] |  | > 1 |  |  | 

Reference: patent US20160222014A1, “COMPOUNDS FOR REGULATING FAK AND/OR SRC PATHWAYS” (ASANA BIOSCIENCES, LLC, priority 2013, published 2016)
